Data on 21 compounds can be found in patent publication US11685746B2, “Heteroaryl compounds for treating Huntington's disease” (PTC THERAPEUTICS, INC., priority 2018, dated 2023).

Molecules are shown by their SMILES.

A word on the IC50: it is the midpoint of a concentration-inhibition curve.

The test system of the assay is Endogenous Huntingtin Protein. Nature of the assay: Endogenous Huntingtin Protein Assay (MSD plates, MW1 or MAB2166 capture antibody). The assay is classed as cell-based. The conditions noted are these: Table 1. The method in brief: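 Sandwich MSD immunoassay: plates were coated overnight at 4° C with MW1 (expanded polyQ) or MAB2166 capture antibody at 1 μg/mL, then blocked with 5% BSA. Samples were bound overnight at 4° C, followed by rabbit mAb #5656S and SULFO-TAG anti-rabbit detection, each at 0.25 μg/mL for 1 h at room temperature. Signal was read by electrochemiluminescence.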
Compound `CN(c1nc2sc(-c3cnc(-c4cn[nH]c4)cn3)nc2s1)[C@H]1C[C@]2(C)CC[C@](C)(C1)N2` [Compound 142, N-[(1R,3s,5S)-1,5-dimethyl-8-azabicyclo[3.2.1]octan-3-yl]-N-methyl-5-[5-(1H-pyrazol-4-yl)pyrazin-2-yl][1,3]thiazolo[5,4-d][1,3]thiazol-2-amine] showed an IC50 not above 0.1 µM.
Turning to `C[C@@H]1C[C@@H](N(C)c2nc3sc(-c4ncc(-c5cn[nH]c5)c5cc[nH]c45)nc3s2)CCN1` [Compound 85, N-methyl-N-[(2R,4S)-2-methylpiperidin-4-yl]-5-[4-(1H-pyrazol-4-yl)-1H-pyrrolo[2,3-c]pyridin-7-yl][1,3]thiazolo[5,4-d][1,3]thiazol-2-amine], the half-maximal inhibitory concentration (IC50) is not above 0.1 µM.
In the case of `CCN1[C@@H]2CC[C@H]1C[C@H](N(C)c1nc3sc(-n4ccc(-c5cn[nH]c5)cc4=O)nc3s1)C2` [Compound 166, 1-(5-{[(1R,3s,5S)-8-ethyl-8-azabicyclo[3.2.1]octan-3-yl](methyl)amino}[1,3]thiazolo[5,4-d][1,3]thiazol-2-yl)-4-(1H-pyrazol-4-yl)pyridin-2(1H)-one], the IC50 is not above 0.1 µM.
In the case of `CN(c1nc2sc(-c3ncc(-c4cn[nH]c4)c4ccn(C)c34)nc2s1)C1CCNCC1` [Compound 113, N-methyl-5-[1-methyl-4-(1H-pyrazol-4-yl)-1H-pyrrolo[2,3-c]pyridin-7-yl]-N-(piperidin-4-yl)[1,3]thiazolo[5,4-d][1,3]thiazol-2-amine], the IC50 fell in the range of 0.1 to 0.5 µM.
`CC1CC(N(C)c2nc3sc(-c4ccc(-c5cn[nH]c5)cn4)nc3s2)CCN1C` (stereo not drawn) [Compound 126, N-(1,2-dimethylpiperidin-4-yl)-N-methyl-5-[5-(1H-pyrazol-4-yl)pyridin-2-yl][1,3]thiazolo[5,4-d][1,3]thiazol-2-amine] gave an IC50 of 0.1 to 0.5 µM.
On to `CN(c1nc2sc(-c3ccc(Br)c4cn[nH]c34)nc2s1)[C@H]1C[C@]2(C)CC[C@](C)(C1)N2` [Compound 111, 5-(4-bromo-1H-indazol-7-yl)-N-[(1R,3s,5S)-1,5-dimethyl-8-azabicyclo[3.2.1]octan-3-yl]-N-methyl[1,3]thiazolo[5,4-d][1,3]thiazol-2-amine], for which the half-inhibitory concentration (IC50) was not above 0.1 µM.
On to `CN(c1nc2sc(-c3ncc(-c4cn[nH]c4)cc3O)nc2s1)C1CC(C)(C)NC(C)(C)C1` [Compound 42, 2-{5-[methyl(2,2,6,6-tetramethylpiperidin-4-yl)amino][1,3]thiazolo[5,4-d][1,3]thiazol-2-yl}-5-(1H-pyrazol-4-yl)pyridin-3-ol], for which the IC50 was not above 0.1 µM.
The result for `CCCN1[C@@H]2CC[C@H]1C[C@H](N(C)c1nc3sc(-n4ccc(-c5cn[nH]c5)cc4=O)nc3s1)C2` [Compound 165, 1-(5-{methyl[(1R,3s,5S)-8-propyl-8-azabicyclo[3.2.1]octan-3-yl]amino}[1,3]thiazolo[5,4-d][1,3]thiazol-2-yl)-4-(1H-pyrazol-4-yl)pyridin-2(1H)-one] reads not above 0.1 µM; that for `CN(c1nc2sc(-c3ccc(-c4cn[nH]c4)nc3)nc2s1)C1CC(C)(C)NC(C)(C)C1` [Compound 135, N-methyl-5-[6-(1H-pyrazol-4-yl)pyridin-3-yl]-N-(2,2,6,6-tetramethylpiperidin-4-yl)[1,3]thiazolo[5,4-d][1,3]thiazol-2-amine], 0.1 to 0.5 µM.
`CC1(C)CC(Oc2nc3sc(-c4ncc(-c5cn[nH]c5)c5cc[nH]c45)nc3s2)CCN1` (stereo not drawn) [Compound 77, 7-{5-[(2,2-dimethylpiperidin-4-yl)oxy][1,3]thiazolo[5,4-d][1,3]thiazol-2-yl}-4-(1H-pyrazol-4-yl)-1H-pyrrolo[2,3-c]pyridine]: the concentration for half-maximal inhibition (IC50) was not above 0.1 µM.
In the case of `CC1CC(N(C)c2nc3sc(-n4cnc(-c5cn[nH]c5)cc4=O)nc3s2)CCN1C` (stereo not drawn) [Compound 131, 3-{5-[(1,2-dimethylpiperidin-4-yl)(methyl)amino][1,3]thiazolo[5,4-d][1,3]thiazol-2-yl}-6-(1H-pyrazol-4-yl)pyrimidin-4(3H)-one], the half-inhibitory concentration (IC50) is 0.1 to 0.5 µM.
As to `CCN(c1nc2sc(-c3ncc(-c4cn[nH]c4)cc3O)nc2s1)C1CCNCC1` [Compound 61, 2-{5-[ethyl(piperidin-4-yl)amino][1,3]thiazolo[5,4-d][1,3]thiazol-2-yl}-5-(1H-pyrazol-4-yl)pyridin-3-ol], the IC50 was not above 0.1 µM.
In the case of `CCN1CCC(N(C)c2nc3sc(-c4ncc(-c5cn[nH]c5)c5cc[nH]c45)nc3s2)CC1` [Compound 122, N-(1-ethylpiperidin-4-yl)-N-methyl-5-[4-(1H-pyrazol-4-yl)-1H-pyrrolo[2,3-c]pyridin-7-yl][1,3]thiazolo[5,4-d][1,3]thiazol-2-amine], the concentration for half-maximal inhibition (IC50) was not above 0.1 µM.
Consider `CC(C)(C)NC1CCN(c2nc3sc(-c4ccc(-c5cn[nH]c5)cc4O)nc3s2)C1` (stereo not drawn) [Compound 147, 2-{5-[3-(tert-butylamino)pyrrolidin-1-yl][1,3]thiazolo[5,4-d][1,3]thiazol-2-yl}-5-(1H-pyrazol-4-yl)phenol], for which the 50% inhibitory concentration (IC50) is 1 to 3 µM.
The compound `Cc1cn2nc(-c3cn4cc(C5CCNCC5)nc4s3)cc(C)c2n1` [Compound 8, 2,8-dimethyl-6-[6-(piperidin-4-yl)imidazo[2,1-b][1,3]thiazol-2-yl]imidazo[1,2-b]pyridazine] showed an IC50 not above 0.1 µM.
Compound `Oc1cc(-c2cn[nH]c2)ccc1-c1nc2sc(N3CC4(CC5CCC(C4)N5)C3)nc2s1` [Compound 198, 5-(1H-pyrazol-4-yl)-2-[5-(spiro[8-azabicyclo[3.2.1]octane-3,3′-azetidin]-1′-yl)[1,3]thiazolo[5,4-d][1,3]thiazol-2-yl]phenol] yielded a half-inhibitory concentration (IC50) of 0.5 to 1 µM.
In turn, `CN(c1nc2sc(-c3ncc(-c4cn[nH]c4)c4cc[nH]c34)nc2s1)C1CCNCC1` [Compound 139, N-methyl-N-(piperidin-4-yl)-5-[4-(1H-pyrazol-4-yl)-1H-pyrrolo[2,3-c]pyridin-7-yl][1,3]thiazolo[5,4-d][1,3]thiazol-2-amine] displayed an IC50 not above 0.1 µM.
The result for `CC1CC(N(C)c2nc3sc(-n4ccc5ccc(O)nc54)nc3s2)CCN1C` (stereo not drawn) [Compound 157, 1-{5-[(1,2-dimethylpiperidin-4-yl)(methyl)amino][1,3]thiazolo[5,4-d][1,3]thiazol-2-yl]-1H-pyrrolo[2,3-b]pyridin-6-ol] reads 0.1 to 0.5 µM; that for `CN(c1nc2sc(-c3nccc4cc[nH]c34)nc2s1)[C@@H]1C[C@H]2CC[C@@H](C1)N2` [Compound 160, N-[(1R,3s,5S)-8-azabicyclo[3.2.1]octan-3-yl]-N-methyl-5-(1H-pyrrolo[2,3-c]pyridin-7-yl)[1,3]thiazolo[5,4-d][1,3]thiazol-2-amine], 0.1 to 0.5 µM; that for `Cc1nccn1-c1cnc(-c2nc3sc(N(C)[C@H]4C[C@]5(C)CC[C@](C)(C4)N5)nc3s2)cn1` [Compound 67, N-[(1R,3s,5S)-1,5-dimethyl-8-azabicyclo[3.2.1]octan-3-yl]-N-methyl-5-[5-(2-methyl-1H-imidazol-1-yl)pyrazin-2-yl][1,3]thiazolo[5,4-d][1,3]thiazol-2-amine], not above 0.1 µM.
In turn, `CC(C)(C)NC1CCN(c2nc3sc(-c4ncc(-c5cn[nH]c5)cn4)nc3s2)C1` (stereo not drawn) [Compound 150, N-tert-butyl-1-{5-[5-(1H-pyrazol-4-yl)pyrimidin-2-yl][1,3]thiazolo[5,4-d][1,3]thiazol-2-yl}pyrrolidin-3-amine] returned an IC50 of 1 to 3 µM.
